Laboratory results as given in EP2951180B1, “2,6,7,8 SUBSTITUTED PURINES AS HDM2 INHIBITORS” (Merck Sharp & Dohme Corp., priority 2013, dated 2014).

Each compound was assayed against T1, HDM2 (Homo sapiens, UniProt Q00987) (assay: HDM2 FRET assay (inhibition of binding of FITC labeled p53-pocket peptide to HDM2)). Details: Table 10; read-out: FRET IC50.
T1 construct: Thioredoxin (N); made in house; host or cells: E. coli strain BL21(DE3)Rosetta
T1 sequence (Q00987 17-125): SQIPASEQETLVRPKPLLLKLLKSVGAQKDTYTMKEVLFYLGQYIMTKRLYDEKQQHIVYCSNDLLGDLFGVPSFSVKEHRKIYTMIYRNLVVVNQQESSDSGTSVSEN
Summary of the method: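 Signal is read as the 520/495 nm emission ratio and converted to percent inhibition; nonlinear sigmoidal regression yields IC50. The assay mixes HDM2 (0.5 nM), FITC-p53 peptide (3 nM) and Tb anti-His antibody (0.25 nM) at 0.1% DMSO.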
In the case of `C[C@@H](Nc1nc(C(=O)O)nc2nc(COCc3ccccc3)n(Cc3ccc(C(F)(F)F)cc3)c12)C1CCC1` [Example 10.2, (R)-8-((benzyloxy)methyl)-6-((1-cyclobutylethyl)amino)-7-(4-(trifluoromethyl)benzyl)-7H-purine-2-carboxylic acid], the IC50 is reported as 21.6 nM. `CC(C)CC(=O)N(C)c1nc2nc(C(=O)O)nc(N[C@H](C)C3CCC3)c2n1Cc1ccc(C(F)(F)F)cc1` [Example 10.3, (R)-6-((1-cyclobutylethyl)amino)-8-(N,3-dimethylbutanamido)-7-(4-(trifluoromethyl)benzyl)-7H-purine-2-carboxylic acid] showed an IC50 of 69.8 nM. `C[C@@H](Nc1nc(C(=O)O)nc2nc(N(C)C(=O)C3CCCCC3)n(Cc3ccc(C(F)(F)F)cc3)c12)C1CCC1` [Example 10.4, (R)-6-((1-cyclobutylethyl)amino)-8-(N-methylcyclohexanecarboxamido)-7-(4-(trifluoromethyl)benzyl)-7H-purine-2-carboxylic acid] was tested, and the IC50 was 14.1 nM. In the case of `CC(C)COC(C)c1nc2nc(C(=O)O)nc(N[C@H](C)C3CCC3)c2n1Cc1ccc(C(F)(F)F)cc1` (stereo partly drawn) [Example 10.5, 6-(((R)-1-cyclobutylethyl)amino)-8-(1-isobutoxyethyl)-7-(4-(trifluoromethyl)benzyl)-7H-purine-2-carboxylic acid], the IC50 is reported as 39.4 nM. Work on `CC(O)c1nc2nc(C(=O)O)nc(N[C@H](C)C3CCC3)c2n1Cc1ccc(C(F)(F)F)cc1` (stereo partly drawn) [Example 10.7, 6-(((R)-1-Cyclobutylethyl)amino)-8-(1-hydroxyethyl)-7-(4-(trifluoromethyl)benzyl)-7H-purine-2-carboxylic acid] yielded an IC50 of 140 nM. With `CC(Oc1ccccc1)c1nc2nc(C(=O)O)nc(N[C@H](C)C3CCC3)c2n1Cc1ccc(C(F)(F)F)cc1` (stereo partly drawn) [Example 10.8, 6-(((R)-1-Cyclobutylethyl)amino)-8-(1-phenoxyethyl)-7-(4-(trifluoromethyl)benzyl)-7H-purine-2-carboxylic acid] the IC50 was 28.9 nM. With `CC(C)CN(C)C(C)c1nc2nc(C(=O)O)nc(N[C@H](C)C3CCC3)c2n1Cc1ccc(C(F)(F)F)cc1` (stereo partly drawn) [Example 10.9, 6-(((R)-1-cyclobutylethyl)amino)-8-(1-(isobutyl(methyl)amino)ethyl)-7-(4-(trifluoromethyl)benzyl)-7H-purine-2-carboxylic acid] the IC50 was 21.2 nM. Work on `CC(c1nc2nc(C(=O)O)nc(N[C@H](C)C3CCC3)c2n1Cc1ccc(C(F)(F)F)cc1)N(C)c1ccccc1` (stereo partly drawn) [Example 10.10, 6-(((R)-1-cyclobutylethyl)amino)-8-(1-(methyl(phenyl)amino)ethyl)-7-(4-(trifluoromethyl)benzyl)-7H-purine-2-carboxylic acid] yielded an IC50 of 68.8 nM. `CC(c1nc2nc(C(=O)O)nc(N[C@H](C)C3CCC3)c2n1Cc1ccc(C(F)(F)F)cc1)N(C)C1CCCCC1` (stereo partly drawn) [Example 10.11, 6-(((R)-1-cyclobutylethyl)amino)-8-(1-(cyclohexyl(methyl)amino)ethyl)-7-(4-(trifluoromethyl)benzyl)-7H-purine-2-carboxylic acid] gave an IC50 of 22.1 nM. For `CC(c1nc2nc(C(=O)O)nc(N[C@H](C)C3CCC3)c2n1Cc1ccc(C(F)(F)F)cc1)N(C)Cc1ccccc1` (stereo partly drawn) [Example 10.12, 8-(1-(benzyl(methyl)amino)ethyl)-6-(((R)-1-cyclobutylethyl)amino)-7-(4-(trifluoromethyl)benzyl)-7H-purine-2-carboxylic acid], the IC50 was 139 nM. For `C[C@@H](Nc1nc(C(=O)O)nc2nc(CN(C)Cc3ccccc3)n(Cc3ccc(C(F)(F)F)cc3)c12)C1CCC1` [Example 10.13, (R)-8-((benzyl(methyl)amino)methyl)-6-((1-cyclobutylethyl)amino)-7-(4-(trifluoromethyl)benzyl)-7H-purine-2-carboxylic acid], the IC50 was 47.7 nM. For `C[C@@H](Nc1nc(C(=O)O)nc2nc(CN(C)C3CCCCC3)n(Cc3ccc(C(F)(F)F)cc3)c12)C1CCC1` [Example 10.14, (R)-6-((1-cyclobutylethyl)amino)-8-((cyclohexyl(methyl)amino)methyl)-7-(4-(trifluoromethyl)benzyl)-7H-purine-2-carboxylic acid], the IC50 was 4.53 nM. Work on `C[C@@H](Nc1nc(C(=O)O)nc2nc(C(=O)N[C@@H](CO)c3ccccc3)n(Cc3ccc(C(F)(F)F)cc3)c12)C1CCC1` [Example 10.15, 6-(((R)-1-cyclobutylethyl)amino)-8-(((R)-2-hydroxy-1-phenylethyl)carbamoyl)-7-(4-(trifluoromethyl)benzyl)-7H-purine-2-carboxylic acid] yielded an IC50 of 202 nM. Compound `CC(C)CNC(=O)c1nc2nc(C(=O)O)nc(N[C@H](C)C3CCC3)c2n1Cc1ccc(C(F)(F)F)cc1` [Example 10.16, (R)-6-((1-Cyclobutylethyl)amino)-8-(isobutylcarbamoyl)-7-(4-(trifluoromethyl)benzyl)-7H-purine-2-carboxylic acid] has an IC50 of 37 nM. `C[C@@H](Nc1nc(C(=O)O)nc2nc(C(=O)NCC3CC3)n(Cc3ccc(C(F)(F)F)cc3)c12)C1CCC1` [Example 10.17, (R)-6-((1-Cyclobutylethyl)amino)-8-((cyclopropylmethyl)carbamoyl)-7-(4-(trifluoromethyl)benzyl)-7H-purine-2-carboxylic acid] gave an IC50 of 67.7 nM. `C[C@@H](Nc1nc(C(=O)O)nc2nc(C(=O)NCc3ccccc3)n(Cc3ccc(C(F)(F)F)cc3)c12)C1CCC1` [Example 10.18, (R)-8-(Benzylcarbamoyl)-6-((1-cyclobutylethyl)amino)-7-(4-(trifluoromethyl)benzyl)-7H-purine-2-carboxylic acid] was tested, and the IC50 was 58.9 nM. Work on `C[C@@H](Nc1nc(C(=O)O)nc2nc(C(=O)NC3CCCCC3)n(Cc3ccc(C(F)(F)F)cc3)c12)C1CCC1` [Example 10.19, (R)-6-((1-Cyclobutylethyl)amino)-8-(cyclohexylcarbamoyl)-7-(4-(trifluoromethyl)benzyl)-7H-purine-2-carboxylic acid] yielded an IC50 of 68 nM. With `C[C@@H](Nc1nc(C(=O)O)nc2nc(C(=O)Nc3ccccc3)n(Cc3ccc(C(F)(F)F)cc3)c12)C1CCC1` [Example 10.20, (R)-6-((1-Cyclobutylethyl)amino)-8-(phenylcarbamoyl)-7-(4-(trifluoromethyl)benzyl)-7H-purine-2-carboxylic acid] the IC50 was 189 nM. Work on `C[C@@H](Nc1nc(C(=O)O)nc2nc(C(=O)N3CCCC(C)(C)C3)n(Cc3ccc(C(F)(F)F)cc3)c12)C1CCC1` [Example 10.21, (R)-6-((1-Cyclobutylethyl)amino)-8-(3,3-dimethylpiperidine-1-carbonyl)-7-(4-(trifluoromethyl)benzyl)-7H-purine-2-carboxylic acid] yielded an IC50 of 22.3 nM. `C[C@@H](Nc1nc(C(=O)O)nc2nc(C3=N[C@H](c4ccccc4)CO3)n(Cc3ccc(C(F)(F)F)cc3)c12)C1CCC1` [Example 10.22, 6-(((R)-1-Cyclobutylethyl)amino)-8-((R)-4-phenyl-4,5-dihydrooxazol-2-yl)-7-(4-(trifluoromethyl)benzyl)-7H-purine-2-carboxylic acid] was tested, and the IC50 was 28.4 nM. `C[C@@H](Nc1nc(C(=O)O)nc2nc(C3CCCCN3C)n(Cc3ccc(C(F)(F)F)cc3)c12)C1CCC1` (stereo partly drawn) [Example 10.23, 6-(((R)-1-Cyclobutylethyl)amino)-8-(1-methylpiperidin-2-yl)-7-(4-(trifluoromethyl)benzyl)-7H-purine-2-carboxylic acid] was tested, and the IC50 was 48 nM. Compound `C[C@@H](Nc1nc(C(=O)O)nc2nc(C3CCCCN3)n(Cc3ccc(C(F)(F)F)cc3)c12)C1CCC1` (stereo partly drawn) [Example 10.24, 6-(((R)-1-Cyclobutylethyl)amino)-8-(piperidin-2-yl)-7-(4-(trifluoromethyl)benzyl)-7H-purine-2-carboxylic acid] has an IC50 of 96.3 nM. For `CCN1CCCCC1c1nc2nc(C(=O)O)nc(N[C@H](C)C3CCC3)c2n1Cc1ccc(C(F)(F)F)cc1` (stereo partly drawn) [Example 10.25, 6-(((R)-1-Cyclobutylethyl)amino)-8-(1-ethylpiperidin-2-yl)-7-(4-(trifluoromethyl)benzyl)-7H-purine-2-carboxylic acid], the IC50 was 35.4 nM. With `CCCN(c1nc2nc(C(=O)O)nc(N[C@H](C)C3CCC3)c2n1Cc1ccc(C(F)(F)F)cc1)[C@@H](C)c1cccc(F)c1` [Example 10.26, 6-{[(1R)-1-cyclobutylethyl]amino}-8-{[(1S)-1-(3-fluorophenyl)ethyl](propyl)amino}-7-[4-(trifluoromethyl)benzyl]-7H-purine-2-carboxylic acid] the IC50 was 1.94 nM. `C=CCN(c1nc2nc(C(=O)O)nc(N[C@H](C)C3CCC3)c2n1Cc1ccc(C(F)(F)F)cc1)[C@@H](C)c1cccc(F)c1` [Example 10.27, 8-(Allyl((S)-1-(3-fluorophenyl)ethyl)amino)-6-(((R)-1-cyclobutylethyl)amino)-7-(4-(trifluoromethyl)benzyl)-7H-purine-2-carboxylic acid] was tested, and the IC50 was 9.84 nM. With `C=CCN(c1nc(C(=O)O)nc2nc(N[C@@H](C)c3cccc(F)c3)n(Cc3ccc(C(F)(F)F)cc3)c12)[C@H](C)C1CCC1` [Example 10.28, 6-(Allyl((R)-1-cyclobutylethyl)amino)-8-(((S)-1-(3-fluorophenyl)ethyl)amino)-7-(4-(trifluoromethyl)benzyl)-7H-purine-2-carboxylic acid] the IC50 was 22.2 nM. In the case of `C[C@@H](Nc1nc(C(=O)O)nc2nc(N(CC3CC3)[C@@H](C)c3ccccc3)n(Cc3ccc(C(F)(F)F)cc3)c12)C1CCC1` [Example 10.29, 6-(((R)-1-Cyclobutylethyl)amino)-8-((cyclopropylmethyl)((S)-1-phenylethyl)amino)-7-(4-(trifluoromethyl)benzyl)-7H-purine-2-carboxylic acid], the IC50 is reported as 35.3 nM. Compound `C=CCN(c1nc2nc(C(=O)O)nc(N[C@H](C)C3CCC3)c2n1Cc1ccc(C(F)(F)F)cc1)C(C)c1ccccn1` (stereo partly drawn) [Example 10.30, 8-(Allyl(1-(pyridin-2-yl)ethyl)amino)-6-(((R)-1-cyclobutylethyl)amino)-7-(4-(trifluoromethyl)benzyl)-7H-purine-2-carboxylic acid] has an IC50 of 9.07 nM.
